According to article PMC8481799, “Lichen Polyphenolic Compounds for the Eradication of Candida albicans Biofilms” (Frontiers in Cellular and Infection Microbiology, 2021):
In brackets after ≈: the same amount, converted by molar mass. Several values for one entry are separate records, joined by “and”; a condition that tells them apart may be missing. Identical values can stand only once. Like-named read-outs stand apart in the source and are kept apart here.

Tests used:
[1] = tested on: C. albicans planktonic yeast; assay: Minimal inhibitory concentration, broth microdilution (CLSI M27-A3 adapted); format: cell-based, Candida albicans ATCC 28367
Procedure: Stock solutions of lichen compounds were prepared in DMSO at 10 mg/ml and were used for all the experiments performed. Their antifungal minimum inhibitory concentrations (MICs) were determined by a broth microdilution method (CLSI reference M27-A3 micromethod adapted protocol) as previously described ([Millot et al., 2017]). Briefly, an inoculum of C. albicans ATCC® 28367™ (American Type Culture Collection) adjusted to 0.5 Mac Farland absorbance was diluted 1:1,000 in RPMI-MOPS. A volume of this yeast culture was added to an equivalent volume of compound solution at several concentrations (100 to 0.048 μg/ml final) in 96-well microtiter plates. Controls as untreated yeasts (negative control), yeasts treated with 2% DMSO and yeasts treated with fluconazole (positive control) were included. After 24 and 48 h incubation at 37°C without shaking, the MICs were determined. All tests were performed in duplicate in at least two separate experiments.

[2] = tested on: C. albicans (ATCC: 90028) biofilm; parameters: method as in Nithyanand et al., 2015b; conditions: at 100 µg/ml, added before the adhesion step, ring test; ref Nithyanand et al., 2015b; cited from earlier work
[3] = tested on: Candida albicans preformed 24-h-old biofilm; assay: Anti-biofilm test (XTT) on preformed 24-h-old biofilm; format: cell-based, Candida albicans ATCC 28367
Procedure: (§1) The anti-maturation and/or anti-biofilm activities of lichen compounds were assessed as previously described ([Millot et al., 2017]). Briefly, C. albicans (ATCC® 28367™) cultures were prepared at a final concentration of 1 × 10^7 cells/ml in yeast nitrogen base medium (Difco, Detroit, MI), supplemented with 50 mM glucose (Sigma, St Louis, MO) (YNB-Glc) from a preculture incubated overnight at 37°C without shaking.
(§2) A total of 200 µl of yeast culture was added to each well of untreated 96-well tissue culture plates. The plates were then incubated at 37°C for 2 h for the anti-maturation test and for 24 h for the anti-biofilm test. After aspiration of spent media and free-floating microorganisms, 250 μl per well of YNB-Glucose and 50 μl lichen compound samples obtained by serial twofold dilutions of each stock solution over the final range 200 to 0.097 μg/ml or 200 to 6.25 μg/ml were added to wells. Controls were also present: untreated yeasts (negative control) and yeasts treated with 2% DMSO. After 24 and/or 48 h of incubation at 37°C followed by aspiration of spent media and free-floating microorganisms, the wells were washed with phosphate-buffered saline (PBS) and observed under an inverted optical microscope (IX51® inverted microscope, Olympus). Biofilms were quantified using a metabolic assay based on the reduction of a tetrazolium salt (XTT) and absorbance measurements at 492 nm (microplate reader LP400; Sanofi Diagnostics Pasteur) ([Cocuaud, 2005]; [Dalleau et al., 2008]). The percent inhibition was determined from the absorbance values compared to the mean absorbance value obtained for untreated wells (100%).
(§3) Concentrations of lichen products inhibiting 50% of biofilms were determined for each tested sample by constructing a dose–response curve and selecting the closest tested concentration value above or equal to 50% inhibition. All anti-maturation and anti-biofilm tests were performed at least in triplicate in at least two separate experiments. The lichen compounds with MMIC50 or/and MBIC50 less than 100 μg/ml were considered as potentially useful.
(§4) Anti-maturation and anti-biofilm tests were performed with C. albicans ATCC® 28367™, as previously described, in 96-well microplates with evernic acid alone, cyclodextrin alone, and evernic acid included in cyclodextrin at over 50 to 1.5 µM final range of evernic acid (serial twofold dilution).

[4] = tested on: 24-h Candida orthopsilosis biofilms; parameters: method as in Pires et al., 2012; conditions: 24-h biofilm, vs untreated controls; ref Pires et al., 2012; cited from earlier work
[5] = tested on: Candida parapsilosis biofilm; parameters: method as in Kvasnickova et al., 2015; conditions: at 300 μg/ml, 24-h biofilm; ref Kvasnickova et al., 2015; cited from earlier work
48-h C. albicans biofilm = tested on: 48-h C. albicans biofilm; parameters: method as in Peralta et al., 2016; conditions: 4 μg/ml, ref Peralta et al., 2016, cited from earlier work
C. albicans = tested on: C. albicans; parameters: method as in Nithyanand et al., 2015b; conditions: at 100 µg/ml; ref Nithyanand et al., 2015b; cited from earlier work
Candida krusei biofilm = tested on: Candida krusei biofilm; parameters: method as in Kvasnickova et al., 2015; conditions: at 300 μg/ml, 24-h biofilm; ref Kvasnickova et al., 2015; cited from earlier work
[6] = tested on: 24-h C. parapsilosis biofilms; parameters: method as in Pires et al., 2012; conditions: 24-h biofilm, vs untreated controls; ref Pires et al., 2012; cited from earlier work
[7] = tested on: Candida albicans biofilms on the maturation phase; assay: Anti-maturation test (XTT), compounds added after 2 h adherence; format: cell-based, Candida albicans ATCC 28367; conditions: for IC50: Candida albicans
Procedure: as §1, §2, §3, §4

red blood cells = assay: Hemolysis test; format: cell-based; conditions: at 100 µg/ml, 1 h
Procedure: Then, 480 µl of each dilution was added to 20 µl of healthy red blood cells (Poitiers University Hospital, Hematology Department) in microtubes (final hematocrit = 4%). Some microtubes were reserved for controls: untreated red blood cells (negative control), cells treated with sterile distilled water (positive control = 100% hemolysis), and cells treated with 1% DMSO. After 1 h of incubation at 37°C, the tubes were centrifuged for 10 s at 14,000 g (A14 centrifuge Jouan) twice, and 200 µl of each supernatant was transferred into 96-well microtiter plates for colorimetric measurements at 450 nm (microplate reader LP400; Sanofi Diagnostics Pasteur) in order to determine the hemolysis percentages of each compound ([Evans et al., 2013]). All tests were performed in duplicate (at least two separate experiments).

[8] = tested on: HeLa human epithelial cervix cells; assay: Growth inhibition of HeLa cells (MTT, 72 h); format: cell-based; conditions: for Growth inhibition of HeLa cells (% inhibition): 72 h
Procedure: HeLa human epithelial cervix cells were grown as monolayers at 37°C in a 5% CO2–95% air humidified atmosphere in RPMI supplemented with 10% FBS and […] gentamycin and streptomycin. Cells (2,000 cells/well) were seeded into each well of 96-well plates. […] The final DMSO concentration was less than 1% and tested as a negative control. Cell viability at 72 h was studied using the MTT assay. Then, 5 µl of MTT (10 mg/ml) was added to each well, and the plates were incubated for 4 h. The medium was then removed by aspiration, and 200 µl DMSO was added to each well. Proliferation was determined spectrophotometrically by measuring the absorbance at 540 nm. The percent of growth inhibition (%GI) was calculated as follows: %GI = [(DO (ʎ540 nm) control - DO (ʎ540 nm) treated)/DO (ʎ540 nm) control] * 100. All experiments were performed in duplicate with at least two replicate experiments.

[9] = parameters: method as in Shcherbakova et al. (2021); conditions: ref Shcherbakova et al. (2021); cited from earlier work
[10] = Candida albicans, 24 h, 24 h of treatment, 24-h-old biofilm, read-out: Anti-biofilm activity MBIC50
[11] = Candida albicans, 48 h, 48 h of treatment, 24-h-old biofilm, read-out: Anti-biofilm activity MBIC50
[12] = 24 h of treatment, read-out: Anti-maturation activity MMIC50
[13] = 48 h of treatment, read-out: Anti-maturation activity MMIC50

Row | Structure (SMILES) | IC50 [3, 10] [µg/mL] | IC50 [3, 11] [µg/mL] | IC50 [7, 12] | IC50 [7, 13] | Hemolytic activity (%) (red blood cells) | also measured
1 | CC(=O)C1=C(O)C=C2Oc3c(C(C)=O)c(O)c(C)c(O)c3C2(C)C1=O (stereo in doubt) [Compound 11, (+)-usnic acid] | – | – | – | – | – | MIC [1]: > 100 µg/mL; Biofilm inhibition [2]: 65%; Anti-biofilm activity ([3]; 24-h-old biofilm, in words): no anti-biofilm activity; IC50 ([3]; Candida albicans, 24 h, read-out: Anti-biofilm activity MBIC50): > 200 µg/mL; IC50 ([3]; Candida albicans, 48 h, read-out: Anti-biofilm activity MBIC50): > 200 µg/mL; IC50 ([3]; Candida albicans, read-out: MBIC50): ≥ 100 µg/mL; Concentration inducing 80% inhibition of cell growth [4]: 31.2 µg/mL; Anti-biofilm properties [5]: no anti-biofilm properties; Biofilm biomass (48-h C. albicans biofilm; control 18.39): 4.91 μm^3/μm^2; Inhibition of biofilm biomass (48-h C. albicans biofilm): 73.3%; Reduction of biofilm thickness (48-h C. albicans biofilm): 76.8%; Antifungal activity (C. albicans): no antifungal activity; Anti-biofilm properties (Candida krusei biofilm): no anti-biofilm properties; Concentration inducing 80% inhibition of cell growth [6]: 62.5 µg/mL; IC50 ([7]; 24 h, read-out: Anti-maturation activity MMIC50): > 200 µg/mL; IC50 ([7]; 48 h, read-out: Anti-maturation activity MMIC50): > 200 µg/mL; Anti-maturation activity ([7]; at 200 µg/ml): not active
2 | Cc1cc(OC(=O)c2c(C)cc(OC(=O)c3c(C)cc(O)cc3O)cc2O)cc(O)c1C(=O)O [Compound 5, gyrophoric acid] | > 200 | > 200 | > 200 µg/mL | 100 µg/mL (≈ 213 µM) | 0.5 ± 0.27 | Growth inhibition of HeLa cells (% inhibition) ([8]; at 100 µg/ml): 70.0 ± 2.3%
3 | COC(=O)c1c(C)cc(OC(=O)c2c(C)cc(O)c(C=O)c2O)c(C)c1O [Compound 4, atranorin] | > 200 | > 200 | > 200 µg/mL | > 200 µg/mL | 0 | IC50 ([7]; incubation time not stated, read-out: MMIC50 (anti-maturation IC50)): ≥ 100 µg/mL; Growth inhibition of HeLa cells (% inhibition) ([8]; at 100 µg/ml): 84.5 ± 6.8%
4 | COc1cc(C)c(C(=O)Oc2cc(C)c(C(=O)O)c(O)c2)c(O)c1 [Compound 1, Evernic acid] | 200 | ≤ 12.5 | 100 µg/mL (≈ 301 µM) | 6.25 µg/mL and 18 µM | 0 | Anti-biofilm activity MBIC50 ([3]; 48 h of treatment, 24-h-old biofilm): 12.5 µg/mL; IC50 ([3]; 48 h of treatment, 24-h-old biofilm, listed as Evernic acid, read-out: Anti-biofilm activity MBIC50): < 12.5 µM; IC50 ([3]; 48 h of treatment, 24-h-old biofilm, listed as evernic acid, read-out: Anti-biofilm activity MBIC50): 37 µM; IC50 ([3]; 48 h of treatment, 24-h-old biofilm, read-out: Anti-biofilm activity MBIC50): 37.5 µM; IC50 ([3]; Candida albicans, 48 h, cyclodextrin experiment, 1.5 to 50 µM, 48 h of contact, read-out: Concentration giving 50% inhibition of the biofilm): 12.5 µM; Predicted cytotoxicity risks [9]: absence of mutagenic, tumorigenic, reproductive, and irritant effects; Hemolytic activity (%) (red blood cells; listed as Evernic acid): no hemolytic activity; Hemolytic activity (%) (red blood cells; listed as evernic acid): no effect at all; Growth inhibition of HeLa cells (% inhibition) ([8]; at 6.125 µg/ml): 22.2 ± 2.8%; Growth inhibition of HeLa cells (% inhibition) ([8]; at 100 µg/ml): more than 70%; Inhibition of HeLa cell growth ([8]; at the lowest tested / minimal active concentration (12.5 or 6.25 µg/ml)): 22%
5 | COc1cc(C)c(C(=O)Oc2cc(C)c(C(=O)O)c(O)c2C)c(O)c1C(=O)O [Compound 2, Squamatic acid] | > 200 | > 200 | 50 µg/mL and 128 µM | 12.5 µg/mL and 32 µM | 0.4 ± 0.01 | Growth inhibition of HeLa cells (% inhibition) ([8]; at 12.5 µg/ml): 14.8 ± 1.6%
6 | COc1cc(C)c(C(=O)Oc2c(C)c(C(=O)O)c(O)c(C=O)c2O)c(O)c1C(=O)O [Compound 3, thamnolic acid] | > 200 | > 200 | 50 µg/mL and 120 µM | 12.5 µg/mL and 30 µM | 4.0 ± 0.02 | Growth inhibition of HeLa cells (% inhibition) ([8]; at 12.5 µg/ml): 11.0 ± 0.9%

Now from value to compound, other results behind:

Row | IC50 [3, 10] [µg/mL] | IC50 [3, 11] [µg/mL] | IC50 [7, 12] | IC50 [7, 13] | Structure (SMILES) | Hemolytic activity (%) (red blood cells) | also measured
7 | > 200 | > 200 | 200 µg/mL (≈ 518 µM) | 200 µg/mL (≈ 518 µM) | COc1cc(C)c2c(c1C=O)Oc1c(c(C)c(O)c3c1C(O)OC3=O)OC2=O (stereo not shown) [Compound 8, stictic acid] | – | –
8 | > 200 | > 200 | > 200 µg/mL | > 200 µg/mL | Cc1cc(O)c(C=O)c2c1C(=O)Oc1c(C)c(O)c3c(c1O2)C(O)OC3=O (stereo not shown) [Compound 6, norstictic acid] | – | –
9 | > 200 | > 200 | – | – | Cc1cc(O)c(C=O)c2c1C(=O)Oc1c(CO)c(O)c3c(c1O2)[C@@H](O)OC3=O [Compound 7, salazinic acid] | – | –
10 | > 200 | 100 | > 200 µg/mL | 100 µg/mL (≈ 206 µM) | CCCCCC(=O)Cc1cc(O)c(O)c2c1C(=O)Oc1cc(O)c(C(=O)O)c(CCCCC)c1O2 [Compound 10, 3-hydroxyphysodic acid] | – | –
11 | > 200 | > 200 | > 200 µg/mL | > 200 µg/mL | CCCCCC(=O)Cc1cc(O)cc2c1C(=O)Oc1cc(O)c(C(=O)O)c(CCCCC)c1O2 [Compound 9, physodic acid] | – | –
